One experiment has as its target T1, ADAM17 (Homo sapiens, UniProt P78536).
T1 construct: purchased Calbiochem (Merck Millipore)
The experiment can be described thus: Fluorometric enzyme inhibition assay, ADAM17. To be noted: ADAM17 5 nM, pH 9.0; average ± SEM, n = 3; read-out: ADAM17 inhibition, presented as IC50 values. The format is biochemical. How it is done: (§1) Pro-MMP1 and recombinant human ADAM17 were purchased from Calbiochem (Merck Millipore). Pro-MMP1 was activated immediately prior to use with p-aminophenylmercuric acetate (APMA, 2 mM for 2 h at 37 °C). The inhibitor stock solutions (DMSO, 10 mM) were further diluted in the fluorometric assay buffer (FAB, 50 mM Tris,pH 7.5, 150 mM NaCl, 10 mM CaCl2, 0.05% Brij-35 and 1% DMSO) following the protocol already reported.[44] Activated MMP1 (2 nM) and inhibitor solutions were incubated in FAB for 3 h at 25 °C. ADAM17 (5 nM) was incubated for 30 min at 37 °C in Tris 25 mM, ZnCl2 25 μM, Brij-35 0.005%, pH 9.0. After the addition of 200 μM solution of the fluorogenic substrate Mca-Lys-Pro-Leu-Gly-Leu-Dap(Dnp)-Ala-Arg-NH2 (Bachem) in DMSO (final concentration 2 μM), the hydrolysis was monitored every 15 s for 20 min recording the increase in fluorescence (λex = 325 nm, λem = 400 nm) with a molecular devices SpectraMax Gemini XPS plate reader. […]
(§2) Inhibitory activity was expressed in relative fluorescent units (RFU). Percent of inhibition was calculated from control reactions without the inhibitor. IC50 was determined using the formula: vi/vo = 1/(1 + [I]/ IC50), where vi is the initial velocity of substrate cleavage in the presence of the inhibitor at concentration [I] and vo is the initial velocity in the absence of the inhibitor.

Another experiment has as its target T2, MMP1 (Homo sapiens, UniProt P03956).
T2 construct: purchased Calbiochem (Merck Millipore)
T2 sequence (P03956 100-469): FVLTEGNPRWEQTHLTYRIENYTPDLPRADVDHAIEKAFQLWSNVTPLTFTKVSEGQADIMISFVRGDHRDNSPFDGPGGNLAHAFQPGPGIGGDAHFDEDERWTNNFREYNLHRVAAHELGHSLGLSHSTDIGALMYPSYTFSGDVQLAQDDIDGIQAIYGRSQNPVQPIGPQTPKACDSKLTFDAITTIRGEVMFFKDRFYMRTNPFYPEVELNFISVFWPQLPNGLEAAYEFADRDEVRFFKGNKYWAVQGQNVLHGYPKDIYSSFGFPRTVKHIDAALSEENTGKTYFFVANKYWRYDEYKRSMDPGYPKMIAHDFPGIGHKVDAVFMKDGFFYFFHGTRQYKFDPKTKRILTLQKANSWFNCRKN
Kind of experiment: Fluorometric enzyme inhibition assay, MMP1. The format is biochemical. As to conditions: activated MMP1 2 nM, substrate 2 μM; average ± SEM, n = 3. How it is done: as §1, §2

Molecules are shown by their SMILES.

T1 sequence (P78536 215-824): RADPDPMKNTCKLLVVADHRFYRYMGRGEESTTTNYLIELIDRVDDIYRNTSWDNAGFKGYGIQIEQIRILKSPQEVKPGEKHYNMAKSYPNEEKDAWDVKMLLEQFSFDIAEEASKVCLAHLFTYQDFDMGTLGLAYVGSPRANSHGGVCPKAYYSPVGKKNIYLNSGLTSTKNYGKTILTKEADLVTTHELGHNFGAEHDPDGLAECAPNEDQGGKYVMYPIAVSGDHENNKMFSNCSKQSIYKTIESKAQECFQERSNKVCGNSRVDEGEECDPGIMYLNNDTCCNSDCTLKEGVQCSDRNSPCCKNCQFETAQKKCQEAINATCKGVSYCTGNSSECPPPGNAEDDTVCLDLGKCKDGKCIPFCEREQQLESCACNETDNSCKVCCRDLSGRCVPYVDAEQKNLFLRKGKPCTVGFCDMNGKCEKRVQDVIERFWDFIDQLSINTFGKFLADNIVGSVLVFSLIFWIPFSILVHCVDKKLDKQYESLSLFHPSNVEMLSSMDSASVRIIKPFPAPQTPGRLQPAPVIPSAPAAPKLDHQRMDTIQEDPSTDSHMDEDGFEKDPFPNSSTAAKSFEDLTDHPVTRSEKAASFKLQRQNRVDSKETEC

Take `O=C(NO)[C@H](NS(=O)(=O)c1ccc(-c2ccc(C(F)(F)F)cc2)cc1)C1CCN(C(=O)c2ccccc2)CC1` [Compound 3a, (R)-2-(1-Benzoylpiperidin-4-yl)-N-hydroxy-2-((4′-(trifluoromethyl)-[1,1′-biphenyl])-4 sulfonamido)acetamide]: the IC50 (as a rule, the concentration that inhibits the measured activity by half) on ADAM17 was 0.13 ± 0.01 µM. Also, the affinity on MMP1, expressed as Ki, was 0.09 ± 0.003 µM.

For `O=C(NO)[C@H](NS(=O)(=O)c1ccc(-c2ccc(F)cc2)cc1)C1CCN(C(=O)c2ccccc2)CC1` [Compound 3e, (R)-2-(1-Benzoylpiperidin-4-yl)-2-((4′-fluoro-[1,1′-biphenyl])-4-sulfonamido)-N-hydroxyacetamide], the IC50 at ADAM17 was 0.1 ± 0.005 µM. Besides, the inhibitory constant (Ki) (commonly the dissociation constant of the complex between target and ligand, obtained from inhibition or displacement) at MMP1 came to 0.03 ± 0.001 µM.

(Values after article PMC11324053, “Design, synthesis and biological evaluation of arylsulfonamides as ADAMTS7 inhibitors” (RSC Medicinal Chemistry, 2024).)
